Reference: US20240409585A1, “MACROCYCLIC IMMUNOMODULATORS” (priority 2021, published 2024)
Numbered stars: 1 amine (or outer) side, 2 acyl side, 3 side chain; on linkers, the order of the positions; unused ones are H or OH. Bridge positions count the residues as written; N and C are the ends. Square brackets hold non-standard residues; d marks the D form. Peptide text beside a SMILES is read from it. * marks the point of attachment. Bip(4'-COOH) = N[C@@H](Cc1ccc(-c2ccc(C(=O)O)cc2)cc1)C(=O)O; Bip(4'-NHAc) = CC(=O)Nc1ccc(-c2ccc(C[C@H](N)C(=O)O)cc2)cc1; X2 = O=C(C[C@H](N[*:1])C(=O)[*:2])NS(=O)(=O)c1ccc(Cl)cc1; Phe(3-CF3) = N[C@@H](Cc1cccc(C(F)(F)F)c1)C(=O)O; Ala(morpholin-4-yl) = N[C@@H](CN1CCOCC1)C(=O)O; Phe(4-COOH) = N[C@@H](Cc1ccc(C(=O)O)cc1)C(=O)O; Bip = N[C@@H](Cc1ccc(-c2ccccc2)cc1)C(=O)O; Phe(3-NH2) = Nc1cccc(C[C@H](N)C(=O)O)c1; Phe(3-F) = N[C@@H](Cc1cccc(F)c1)C(=O)O; Phe(3-Me) = Cc1cccc(C[C@H](N)C(=O)O)c1; 3Pal = N[C@@H](Cc1cccnc1)C(=O)O; Cha = N[C@@H](CC1CCCCC1)C(=O)O; Carboxymethyl = O=C(O)C*; NMeA = CN[C@@H](C)C(=O)O; Orn = NCCC[C@H](N)C(=O)O; Dab = NCC[C@H](N)C(=O)O

What was measured:
[1] = target: T1, PE-labeled human PD-L1-Ig binding to Jurkat cell line over-expressing human PD-1 (Jurkat-PD-1) (Homo sapiens, UniProt Q15116); assay: Jurkat-PD-1 Cell Binding High-Content Screening Assay (CBA): Method 2 (presence and absence of tween-20); conditions: Jurkat-PD-1 cells, PE-labeled PD-L1-Ig 20 nM; presence or absence of tween-20 not given; head μM; read-out: CBA Method 2 μM
T1 construct: expressed in transfected cells; host or cells: Jurkat
T1 sequence (Q15116 25-288): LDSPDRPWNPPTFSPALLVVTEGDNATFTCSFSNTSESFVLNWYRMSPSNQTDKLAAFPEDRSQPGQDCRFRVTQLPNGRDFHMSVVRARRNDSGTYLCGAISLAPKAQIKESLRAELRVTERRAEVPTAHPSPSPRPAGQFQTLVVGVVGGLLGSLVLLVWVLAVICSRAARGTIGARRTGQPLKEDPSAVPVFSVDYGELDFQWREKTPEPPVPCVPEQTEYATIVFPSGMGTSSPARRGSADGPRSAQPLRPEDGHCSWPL
How it was run: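 Compounds incubated with Jurkat cells overexpressing human PD-1 for 2 h at 37° C, tested with and without tween-20 to flag aggregation. PE-labeled human PD-L1-Ig (20 nM final) added in DMEM/10% FCS; binding read by high-content imaging.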

[2] = target: T1, PE-labeled human PD-L1-Ig binding to Jurkat cell line over-expressing human PD-1 (Jurkat-PD-1); assay: Jurkat-PD-1 Cell Binding High-Content Screening Assay (CBA): Method 1; conditions: Jurkat-PD-1 cells, PE-labeled PD-L1-Ig; μM; read-out: CBA Method 1 μM

Row | SMILES | IC50 [1] [µM] | IC50 [2] [µM]
1 | CC(=O)Nc1ccc(-c2ccc(C[C@@H]3NC(=O)[C@H](Cc4cccc(C)c4)NC(=O)[C@H](CC(=O)O)NC(=O)[C@H](Cc4ccc(C(=O)O)cc4)NC(=O)[C@H](CN4CCOCC4)NC(=O)CSC[C@@H](C(=O)N[C@@H](CCN)C(N)=O)NC(=O)[C@H](CCCN)NC(=O)[C@H](C(C)C)NC(=O)[C@H](Cc4cccc(F)c4)NC(=O)[C@H](CCN)NC(=O)[C@@H](CC(C)C)NC(=O)[C@H](C)N(C)C(=O)[C@H](CCC(N)=O)NC(=O)[C@H](Cc4ccc(-c5ccccc5)cc4)NC3=O)cc2)cc1 [Example 5049] ({CH2CO}-[Ala(morpholin-4-yl)][Phe(4-COOH)]D[Phe(3-Me)][Bip(4'-NHAc)][Bip]Q[NMeA][dL][Dab][Phe(3-F)]V[Orn]C[Dab]-NH2; thioether N-14) | 0.007 | 0.0083
2 | CC(=O)Nc1ccc(-c2ccc(C[C@@H]3NC(=O)[C@H](Cc4cccc(C(F)(F)F)c4)NC(=O)[C@H](CC(=O)O)NC(=O)[C@H](Cc4ccc(-c5ccc(C(=O)O)cc5)cc4)NC(=O)[C@H](CN4CCOCC4)NC(=O)CSC[C@@H](C(=O)N[C@@H](CCN)C(N)=O)NC(=O)[C@H](CCN)NC(=O)[C@H](C(C)C)NC(=O)[C@H](CC4CCCCC4)NC(=O)[C@H](CCN)NC(=O)[C@@H](CC(C)C)NC(=O)[C@H](C)N(C)C(=O)[C@H](CCCN)NC(=O)[C@H](Cc4ccc(-c5ccccc5)cc4)NC3=O)cc2)cc1 [Example 5091] ({CH2CO}-[Ala(morpholin-4-yl)][Bip(4'-COOH)]D[Phe(3-CF3)][Bip(4'-NHAc)][Bip][Orn][NMeA][dL][Dab][Cha]V[Dab]C[Dab]-NH2; thioether N-14) | 0.07 | 0.09
3 | Cc1cccc(C[C@@H]2NC(=O)[C@H](CC(=O)O)NC(=O)[C@H](Cc3ccc(OCC(=O)O)cc3)NC(=O)[C@H](CN3CCOCC3)NC(=O)CSC[C@@H](C(=O)N[C@@H](CCN)C(N)=O)NC(=O)[C@H](CCCN)NC(=O)[C@H](C(C)C)NC(=O)[C@H](Cc3cccnc3)NC(=O)[C@H](CCN)NC(=O)[C@@H](CC(C)C)NC(=O)[C@H](C)N(C)C(=O)[C@H](CCC(N)=O)NC(=O)[C@H](Cc3ccc(-c4ccccc4)cc3)NC(=O)[C@H](Cc3ccc(C(=O)O)cc3)NC2=O)c1 [Example 5039] ({CH2CO}-[Ala(morpholin-4-yl)]Y(Carboxymethyl)D[Phe(3-Me)][Phe(4-COOH)][Bip]Q[NMeA][dL][Dab][3Pal]V[Orn]C[Dab]-NH2; thioether N-14) | 0.0607 | 0.0729
4 | CC(C)C[C@H]1NC(=O)[C@H](C)N(C)C(=O)[C@H](CCC(N)=O)NC(=O)[C@H](Cc2ccc(-c3ccccc3)cc2)NC(=O)[C@H](Cc2ccc(C(=O)O)cc2)NC(=O)[C@H](Cc2cccc(C(F)(F)F)c2)NC(=O)[C@H](CC(=O)NS(=O)(=O)c2ccc(Cl)cc2)NC(=O)[C@H](Cc2ccc(C(=O)O)cc2)NC(=O)[C@H](CN2CCOCC2)NC(=O)CSC[C@@H](C(=O)N[C@@H](CCN)C(N)=O)NC(=O)[C@H](CCCN)NC(=O)[C@H](C(C)C)NC(=O)[C@H](CC2CCCCC2)NC(=O)[C@H](CCN)NC1=O [Example 5078] ({CH2CO}-[Ala(morpholin-4-yl)][Phe(4-COOH)][X2][Phe(3-CF3)][Phe(4-COOH)][Bip]Q[NMeA][dL][Dab][Cha]V[Orn]C[Dab]-NH2; thioether N-14) | 0.264 | 0.533
5 | Cc1cccc(C[C@@H]2NC(=O)[C@H](CC(=O)O)NC(=O)[C@H](Cc3ccc(OCC(=O)O)cc3)NC(=O)[C@H](CN3CCOCC3)NC(=O)CSC[C@@H](C(=O)N[C@@H](CCN)C(N)=O)NC(=O)[C@H](CCCN)NC(=O)[C@H](C(C)C)NC(=O)[C@H](Cc3cccc(N)c3)NC(=O)[C@H](CCN)NC(=O)[C@@H](CC(C)C)NC(=O)[C@H](C)N(C)C(=O)[C@H](CCC(N)=O)NC(=O)[C@H](Cc3ccc(-c4ccccc4)cc3)NC(=O)[C@H](Cc3ccc(C(=O)O)cc3)NC2=O)c1 [Example 5040] ({CH2CO}-[Ala(morpholin-4-yl)]Y(Carboxymethyl)D[Phe(3-Me)][Phe(4-COOH)][Bip]Q[NMeA][dL][Dab][Phe(3-NH2)]V[Orn]C[Dab]-NH2; thioether N-14) | 0.0146 | 0.0159
